Values quoted from earlier work in patent US20190350197A1, “Composition comprising polyurethane microcapsules comprising cinmethylin” (BASF Agro B.V., priority 2016, published 2019).

Settings: at 20° C.

Substance: (±)-2-exo-(2-methylbenzyloxy)-1-methyl-4-isopropyl-7-oxabicyclo[2.2.1]heptane [Cinmethylin]
- solubility in water: 0.063 g-L^−1
